Source: article PMC8120209, “Longitudinal evaluation of a novel BChE PET tracer as an early in vivo biomarker in the brain of a mouse model for Alzheimer disease” (Theranostics, 2021)

What was measured:
Design in all cases: Eurofins SafetyScreen44 radioligand displacement, inhibition of control specific binding
[1] = target: T1, 5-HT2B(h) (Homo sapiens, UniProt P41595); assay: biochemical; conditions: reference compound
T1 construct: gene HTR2B

[2] = target: T2, N neuronal α7 (h) (Homo sapiens, UniProt P36544); conditions: reference compound; binder
T2 construct: gene CHRNA7
T2 sequence (P36544 whole entry): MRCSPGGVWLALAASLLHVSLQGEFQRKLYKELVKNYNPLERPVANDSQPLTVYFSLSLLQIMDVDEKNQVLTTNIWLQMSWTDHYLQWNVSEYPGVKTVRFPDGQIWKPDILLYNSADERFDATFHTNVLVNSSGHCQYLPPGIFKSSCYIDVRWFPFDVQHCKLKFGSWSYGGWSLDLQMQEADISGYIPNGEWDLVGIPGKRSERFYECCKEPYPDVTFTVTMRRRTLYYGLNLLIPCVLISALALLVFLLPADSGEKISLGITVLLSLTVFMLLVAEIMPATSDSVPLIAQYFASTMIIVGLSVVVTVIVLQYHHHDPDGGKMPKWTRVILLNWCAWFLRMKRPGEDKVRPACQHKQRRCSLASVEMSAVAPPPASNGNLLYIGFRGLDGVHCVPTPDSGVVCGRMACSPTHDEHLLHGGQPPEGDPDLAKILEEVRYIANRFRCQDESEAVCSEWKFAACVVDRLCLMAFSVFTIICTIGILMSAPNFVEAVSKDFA

[3] = target: T2, N neuronal α7 (h); conditions: reference compound; binder; remark: listed apart in the source
[4] = target: T3, M5(h) (Homo sapiens, UniProt P08912); assay: biochemical; conditions: reference compound
T3 construct: gene CHRM5
T3 sequence (P08912 whole entry): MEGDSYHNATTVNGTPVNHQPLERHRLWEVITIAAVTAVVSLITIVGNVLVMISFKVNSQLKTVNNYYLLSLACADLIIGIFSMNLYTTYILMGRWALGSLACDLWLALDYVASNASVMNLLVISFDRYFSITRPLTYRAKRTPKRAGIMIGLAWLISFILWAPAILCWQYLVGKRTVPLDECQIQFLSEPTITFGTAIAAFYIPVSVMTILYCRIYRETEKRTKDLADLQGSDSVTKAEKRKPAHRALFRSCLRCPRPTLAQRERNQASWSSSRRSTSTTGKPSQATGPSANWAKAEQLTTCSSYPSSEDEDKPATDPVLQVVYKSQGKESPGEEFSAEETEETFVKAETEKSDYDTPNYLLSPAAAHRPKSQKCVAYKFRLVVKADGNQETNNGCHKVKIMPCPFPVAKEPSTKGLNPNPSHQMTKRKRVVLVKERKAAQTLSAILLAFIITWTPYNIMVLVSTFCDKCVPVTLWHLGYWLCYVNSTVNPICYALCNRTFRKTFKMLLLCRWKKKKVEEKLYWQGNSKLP

[5] = target: T4, adrenergic receptor α1A (Homo sapiens, UniProt P35348); conditions: reference compound; binder
T4 construct: gene ADRA1A
T4 sequence (P35348 1-466): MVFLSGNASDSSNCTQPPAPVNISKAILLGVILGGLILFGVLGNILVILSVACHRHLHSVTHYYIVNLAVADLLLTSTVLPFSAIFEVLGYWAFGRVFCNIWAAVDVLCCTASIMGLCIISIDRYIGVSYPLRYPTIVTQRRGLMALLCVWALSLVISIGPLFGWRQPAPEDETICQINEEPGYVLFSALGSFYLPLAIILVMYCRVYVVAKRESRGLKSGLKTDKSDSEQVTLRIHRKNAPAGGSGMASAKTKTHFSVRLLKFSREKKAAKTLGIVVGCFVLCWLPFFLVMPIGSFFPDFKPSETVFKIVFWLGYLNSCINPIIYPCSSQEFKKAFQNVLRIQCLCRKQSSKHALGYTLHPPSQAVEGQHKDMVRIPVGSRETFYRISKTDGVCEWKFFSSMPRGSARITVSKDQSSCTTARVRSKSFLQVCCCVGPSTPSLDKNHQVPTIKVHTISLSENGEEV

[6] = target: T4, adrenergic receptor α1A; conditions: reference compound; binder; remark: listed apart in the source

T1 sequence (P41595 whole entry): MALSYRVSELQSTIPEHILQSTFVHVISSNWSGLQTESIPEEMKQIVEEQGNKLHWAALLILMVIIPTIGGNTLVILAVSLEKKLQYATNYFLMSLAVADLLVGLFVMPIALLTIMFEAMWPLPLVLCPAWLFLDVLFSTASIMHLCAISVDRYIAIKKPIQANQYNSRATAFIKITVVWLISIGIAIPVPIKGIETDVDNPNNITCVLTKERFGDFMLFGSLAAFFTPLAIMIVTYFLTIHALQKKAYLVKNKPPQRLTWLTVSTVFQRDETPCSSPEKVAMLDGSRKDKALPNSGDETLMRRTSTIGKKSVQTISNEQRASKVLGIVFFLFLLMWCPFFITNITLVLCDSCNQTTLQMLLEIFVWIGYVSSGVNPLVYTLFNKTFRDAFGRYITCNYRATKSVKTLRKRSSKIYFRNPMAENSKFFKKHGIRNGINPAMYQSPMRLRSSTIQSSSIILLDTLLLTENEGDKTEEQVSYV

With `COc1cc(CC(C)N)c(OC)cc1I` (racemic) [(±)DOI] the Ki [1] was 1.8 nM.

In the case of `Clc1ccc(C2CC3CCC2N3)cn1` (racemic) [(±)epibatidine], the IC50 [2] is reported as 86 nM and the Ki [3] is reported as 75 nM.

`C[N+]1(C)CCC(OC(=O)C(c2ccccc2)c2ccccc2)CC1` [4-DAMP] gave a Ki [4] of 0.5 nM.

In the case of `COc1cccc(OC)c1OCCNCC1COc2ccccc2O1` (stereo not drawn) [WB 4101], the Ki [5] is reported as 0.3 nM and the IC50 [6] is reported as 0.61 nM.
